According to patent US20140249147A1, “Substituted Bicyclic Aza-Heterocycles and Analogues as Sirtuin Modulators” (GlaxoSmithKline, LLC, priority 2011, published 2014):

Experiments:
SIRT1 [1] = biological target: T1, SIRT1 (Homo sapiens, UniProt Q96EB6); assay: TAMRA based mass spectrometry assay of SIRT1 activation; assay type: biochemical; details: TAMRA peptide substrate; for Emax: 25 min, percent maximum fold activation relative to control (100%), read-out: TAMRA % Fold Act; for TAMRA EC1.5 (μM): concentration giving 150% activation of SIRT1
T1 sequence (Q96EB6 1-747): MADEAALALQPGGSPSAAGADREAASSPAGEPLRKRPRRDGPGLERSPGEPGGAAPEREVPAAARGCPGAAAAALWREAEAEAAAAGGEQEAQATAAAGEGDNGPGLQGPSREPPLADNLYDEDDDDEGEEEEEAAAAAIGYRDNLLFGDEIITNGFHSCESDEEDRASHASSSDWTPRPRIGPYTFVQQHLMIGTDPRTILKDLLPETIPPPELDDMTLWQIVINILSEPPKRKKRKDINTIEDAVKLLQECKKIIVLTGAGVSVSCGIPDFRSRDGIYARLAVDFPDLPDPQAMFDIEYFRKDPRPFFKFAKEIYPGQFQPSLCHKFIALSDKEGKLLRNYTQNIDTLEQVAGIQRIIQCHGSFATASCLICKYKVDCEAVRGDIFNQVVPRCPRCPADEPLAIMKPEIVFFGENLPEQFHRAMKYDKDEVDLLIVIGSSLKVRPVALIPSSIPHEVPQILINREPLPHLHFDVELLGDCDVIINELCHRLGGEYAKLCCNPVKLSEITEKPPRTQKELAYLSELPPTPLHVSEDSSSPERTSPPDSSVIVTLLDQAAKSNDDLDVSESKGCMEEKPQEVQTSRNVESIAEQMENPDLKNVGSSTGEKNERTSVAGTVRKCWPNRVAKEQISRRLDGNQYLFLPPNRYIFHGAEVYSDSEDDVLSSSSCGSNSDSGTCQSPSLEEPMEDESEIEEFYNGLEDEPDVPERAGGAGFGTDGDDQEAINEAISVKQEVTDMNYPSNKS
From the text: (§1) Mass spectrometry based assays were used to identify modulators of SIRT1 activity. The TAMRA based assay utilized a peptide having 20 amino acid residues as follows: Ac-EE-K(biotin)-GQSTSSHSK(Ac)NleSTEG-K(5TMR)-EE-NH2 (SEQ ID NO: 1), wherein K(Ac) is an acetylated lysine residue and Nle is a norleucine. The peptide was labeled with the fluorophore 5TMR (excitation 540 nm/emission 580 nm) at the C-terminus. The sequence of the peptide substrate was based on p53 with several modifications. In addition, the methionine residue naturally present in the sequence was replaced with the norleucine because the methionine may be susceptible to oxidation during synthesis and purification. The Trp based assay utilized a peptide having an amino acid residues as follows: Ac—R—H—K—K(Ac)—W—NH2 (SEQ ID NO: 2).
The TAMRA based mass spectrometry assay was conducted as follows: 0.5 μM peptide substrate and 120 μM βNAD^+ was incubated with 10 nM SIRT1 for 25 minutes at 25° C. in a reaction buffer (50 mM Tris-acetate pH 8, 137 mM NaCl, 2.7 mM KCl, 1 mM MgCl2, 5 mM DTT, 0.05% BSA). The SIRT1 protein was obtained by cloning the SirT1 gene into a T7-promoter containing vector, which was then transformed and expressed in BL21(DE3) bacterial cells. Test compound was added at varying concentrations to this reaction mixture and the resulting reactions were monitored. After the 25 minute incubation with SIRT1, 10 μL of 10% formic acid was added to stop the reaction. The resulting reactions were sealed and frozen for later mass spec analysis. Determination of the amount of deacetylated substrate peptide formed (or, alternatively, the amount of O-acetyl-ADP-ribose (OAADPR) generated) by the sirtuin-mediated NAD-dependent deacetylation reaction allowed for the precise measurement of relative SIRT1 activity in the presence of varying concentrations of the test compound versus control reactions lacking the test compound.
(§2) A control for inhibition of sirtuin activity was conducted by adding 1 μL of 500 mM nicotinamide as a negative control at the start of the reaction (e.g., permits determination of maximum sirtuin inhibition). A control for activation of sirtuin activity was conducted using 10 nM of sirtuin protein, with 1 μL of DMSO in place of compound, to determine the amount of deacetylation of the substrate at a given time point within the linear range of the assay. This time point was the same as that used for test compounds and, within the linear range, the endpoint represents a change in velocity. For the above assay, SIRT1 protein was expressed and purified as follows. The SirT1 gene was cloned into a T7-promoter containing vector and transformed into BL21(DE3). The protein was expressed by induction with 1 mM IPTG as an N-terminal His-tag fusion protein at 18° C. overnight and harvested at 30,000×g. Cells were lysed with lysozyme in lysis buffer (50 mM Tris-HCl, 2 mM Tris[2-carboxyethyl]phosphine (TCEP), 10 μM ZnCl2, 200 mM NaCl) and further treated with sonication for 10 min for complete lysis. The protein was purified over a Ni-NTA column (Amersham) and fractions containing pure protein were pooled, concentrated and run over a sizing column (Sephadex S200 26/60 global). The peak containing soluble protein was collected and run on an Ion-exchange column (MonoQ). Gradient elution (200 mM-500 mM NaCl) yielded pure protein. This protein was concentrated and dialyzed against dialysis buffer (20 mM Tris-HCl, 2 mM TCEP) overnight. The protein was aliquoted and frozen at −80° C. until further use.
Sirtuin-modulating compounds of Formula (I) that activated SIRT1 were identified using the assay described above and are shown below in Table 1. The EC1.5 values represent the concentration of test compounds that result in 150% activation of SIRT1. The EC1.5 values for the activating compounds of Formula (I) are represented by A (EC1.5<1 μM), B (EC1.5 1-25 μM), C (EC1.5>25 μM). […]

SIRT1 [2] = biological target: T1, SIRT1; assay: Trp mass spectrometry assay of SIRT1 activation; assay type: biochemical; details: Trp peptide substrate
From the text: as §1
The Trp mass spectrometry assay was conducted as follows. 0.5 μM peptide substrate and 120 μM βNAD^+ were incubated with 10 nM SIRT1 for 25 minutes at 25° C. in a reaction buffer (50 mM HEPES pH 7.5, […], 1 mM DTT, 0.05% BSA). The SIRT1 protein was obtained by cloning the SirT 1 gene into a T7-promoter containing vector, which was then expressed in BL21(DE3) bacterial cells and purified as described in further detail below. Test compound was added at varying concentrations to this reaction mixture and the resulting reactions were monitored. After the 25 minute incubation with SIRT1, 10 μL of 10% formic acid was added to stop the reaction. The resulting reactions were sealed and frozen for later mass spec analysis. The relative SIRT1 activity was then determined by measuring the amount of O-acetyl-ADP-ribose (OAADPR) formed (or, alternatively, the amount of deacetylated Trp peptide generated) by the NAD-dependent sirtuin deacetylation reaction in the presence of varying concentrations of the test compound versus control reactions lacking the test compound. The degree to which the test agent activated deacetylation by SIRT1 was expressed as EC1.5 (i.e., the concentration of compound required to increase SIRT1 activity by 50% over the control lacking test compound), and Percent Maximum Activation (i.e., the maximum activity relative to control (100%) obtained for the test compound).
as §2
Sirtuin-modulating compounds of Formula (I) that activated SIRT1 were identified using the assay described above and are shown below in Table 1. […]

Structure (SMILES) | Emax (SIRT1 [1]) [%] | TAMRA EC1.5 (μM) (SIRT1 [1]) | TYP EC1.5 (μM) (SIRT1 [2]; concentration giving 150% activation of SIRT1) | TYP % Fold Act (SIRT1 [2]; percent maximum fold activation relative to control (100%))
O=C(Nc1ccccn1)c1ccc2nnc(-c3cccc(OC(F)(F)F)c3)n2n1 [Compound 2] | < 350 | C (EC1.5>25 μM) | – | –
O=C(Nc1ccccn1)c1ccc2nnc(-c3cccc(C(F)(F)F)c3)n2n1 [Compound 3] | – | C (EC1.5>25 μM) | – | –
O=C(Nc1cccc(C(F)(F)F)n1)c1ccc2nnc(-c3cccc(F)c3)n2n1 [Compound 7] | < 350 | – | – | –
O=C(Nc1cccc(C(F)(F)F)n1)c1ccc2ncc(-c3ccccc3F)n2n1 [Compound 9] | < 350 | B (EC1.5 1-25 μM) | – | –
O=C(Nc1ccc(F)cn1)c1ccc2ncc(-c3cccc(C(F)(F)F)c3)n2n1 [Compound 11] | < 350 | B (EC1.5 1-25 μM) | – | –
O=C(Nc1ccnc(C(F)(F)F)c1)c1ccc2ncc(-c3ccccc3F)n2n1 [Compound 12] | < 350 | B (EC1.5 1-25 μM) | – | –
O=C(Nc1ccc2ncc(-c3ccccc3F)n2n1)c1cnccn1 [Compound 13] | < 350 | C (EC1.5>25 μM) | – | –
O=C(Nc1ccc2ncc(-c3cccc(F)c3)n2n1)c1nccs1 [Compound 17] | < 350 | B (EC1.5 1-25 μM) | – | –
O=C(Nc1ccc2ncc(-c3cccc(F)c3)n2n1)c1cnccn1 [Compound 20] | < 350 | B (EC1.5 1-25 μM) | – | –
O=C(Nc1ccc2ncc(-c3ccccc3Cl)n2n1)c1nccs1 [Compound 24] | < 350 | B (EC1.5 1-25 μM) | – | –
O=C(Nc1ccc2ncc(-c3ccccc3F)n2n1)c1ncccn1 [Compound 25] | < 350 | B (EC1.5 1-25 μM) | – | –
O=C(Nc1ccc2ncc(-c3cccc(Cl)c3)n2n1)c1nccs1 [Compound 27] | < 350 | B (EC1.5 1-25 μM) | – | –
O=C(Nc1ccc2ncc(-c3cccc(F)c3)n2n1)c1ccccn1 [Compound 28] | < 350 | B (EC1.5 1-25 μM) | – | –
O=C(Nc1ccnc(C(F)(F)F)c1)c1ccc2ncc(-c3ccccc3Cl)n2n1 [Compound 29] | < 350 | B (EC1.5 1-25 μM) | – | –
O=C(Nc1ccc2ncc(-c3cccc(Cl)c3)n2n1)c1ccccn1 [Compound 30] | < 350 | B (EC1.5 1-25 μM) | – | –
O=C(Nc1ccc2ncc(-c3cccc(C(F)(F)F)c3)n2n1)c1ccccn1 [Compound 31] | < 350 | B (EC1.5 1-25 μM) | – | –

Structure (SMILES) | Emax (SIRT1 [1]) [%] | TAMRA EC1.5 (μM) (SIRT1 [1]) | TYP EC1.5 (μM) (SIRT1 [2]; concentration giving 150% activation of SIRT1) | TYP % Fold Act (SIRT1 [2]; percent maximum fold activation relative to control (100%))
O=C(Nc1cccc(N2CCOCC2)n1)c1ccc2ncc(-c3ccccc3F)n2n1 [Compound 32] | < 350 | C (EC1.5>25 μM) | – | –
O=C(Nc1ccc2ncc(-c3ccccc3Cl)n2n1)c1ncccn1 [Compound 33] | ≥ 350 | A (EC1.5<1 μM) | – | –
O=C(Nc1ccc2ncc(-c3cccc(Cl)c3)n2n1)c1cnccn1 [Compound 34] | < 350 | A (EC1.5<1 μM) | – | –
Cn1ccc(C(=O)Nc2ccc3ncc(-c4cccc(Cl)c4)n3n2)n1 [Compound 35] | < 350 | A (EC1.5<1 μM) | – | –
Cn1ccc(C(=O)Nc2ccc3ncc(-c4ccccc4F)n3n2)n1 [Compound 36] | < 350 | A (EC1.5<1 μM) | – | –
O=C(Nc1ccc2ncc(-c3cccc(Cl)c3)n2n1)c1ncccn1 [Compound 37] | < 350 | B (EC1.5 1-25 μM) | – | –
O=C(Nc1ccc2ncc(-c3cccc(C(F)(F)F)c3)n2n1)c1ncccn1 [Compound 39] | – | – | C (EC1.5>25 μM) | B (Fold Activation <350%)
Cn1ccc(C(=O)Nc2ccc3ncc(-c4cccc(C(F)(F)F)c4)n3n2)n1 [Compound 40] | < 350 | C (EC1.5>25 μM) | – | –
O=C(Nc1ccc2ncc(-c3ccccc3Cl)n2n1)c1ccccn1 [Compound 41] | < 350 | C (EC1.5>25 μM) | – | –
CS(=O)(=O)c1cccc(-c2nnc3ccc(C(=O)Nc4nccs4)nn23)c1 [Compound 42] | < 350 | C (EC1.5>25 μM) | – | –
Cn1ccc(C(=O)Nc2ccc3ncc(-c4cccc(F)c4)n3n2)n1 [Compound 43] | < 350 | C (EC1.5>25 μM) | – | –
Cn1ccc(C(=O)Nc2ccc3ncc(-c4ccccc4Cl)n3n2)n1 [Compound 45] | < 350 | C (EC1.5>25 μM) | – | –
O=C(Nc1cccc(N2CCOCC2)n1)c1ccc2ncc(-c3cccc(Cl)c3)n2n1 [Compound 46] | < 350 | B (EC1.5 1-25 μM) | – | –
O=C(Nc1ccnc(C2CCOCC2)c1)c1ccc2ncc(-c3cccc(C(F)(F)F)c3)n2n1 [Compound 47] | ≥ 350 | A (EC1.5<1 μM) | – | –
O=C(Nc1nccs1)c1ccc2nnc(-c3cccc(C(F)(F)F)c3)n2n1 [Compound 49] | < 350 | C (EC1.5>25 μM) | – | –
O=C(Nc1ccnc(C(F)(F)F)c1)c1ccc2ncc(-c3cccc(F)c3)n2n1 [Compound 50] | < 350 | C (EC1.5>25 μM) | – | –
